Marks after values point to notes of the source that are not given here.
Key:
Format in all cases: cell-based, human
[1] = molecular target: Rab9 promoter; assay: qHTS of Rab9 Promoter-Luciferase Reporter Gene Assay (firefly, Huh7); details: 24 hours
Method: qHTS of Rab9 Promoter-Luciferase Reporter Gene Assay. For the primary screen, a promoter assay was developed by engineering a vector using approximately 1.5 kb of the Rab9 promoter to drive the expression of the firefly luciferase reporter gene. Thus, Rab9 promoter activation results in luciferase expression. This vector was used to generate Huh7 cell lines stably expressing the Rab9-luciferase vector. […] Cells were plated for assays in OPTI-MEM I reduced-serum medium supplemented with 10% FBS at 1,500 cells/well in 5 μL in 1,536-well white opaque plates with 23 nL/well of test compound in DMSO solution. The assay plates were incubated at 37° C. for 24 hours, after which 3 μL/well BriteLite plus luciferase detection reagent mixture (Perkin Elmer) was added. Luminescence signal was measured in a ViewLux plate reader (Perkin Elmer) after a 10 minute incubation at room temperature.

[2] = molecular target: NPC1 promoter; assay: qHTS of NPC1 Promoter-Luciferase Reporter Gene Assay (firefly, Huh7); details: 24 hours
Method: qHTS of NPC1 Promoter-Luciferase Reporter Gene Assay. For the second primary screen, a promoter assay was developed by engineering a vector using approximately 1.5 kb of the NPC1 promoter to drive the expression of the firefly luciferase reporter gene. Thus, NPC1 promoter activation results in luciferase expression. This vector was used to generate Huh7 cell lines stably expressing the NPC1-luciferase vector. […] Cells were plated for assays in OPTI-MEM I reduced-serum medium supplemented with 10% FBS at 1,500 cells/well in 5 μL in 1,536-well white opaque plates with 23 nL/well of test compound in DMSO solution. The assay plates were incubated at 37° C. for 24 hours, after which 3 μL/well BriteLite plus luciferase detection reagent mixture (Perkin Elmer) was added. Luminescence signal was measured in a ViewLux plate reader (Perkin Elmer) after a 10 minute incubation at room temperature.

[3] = system: NPC1 patient cell fibroblasts; assay: Filipin Staining Assay to Detect Free Cholesterol Accumulation in NPC Cells; details: filipin fluorescence relative to untreated cells; for activity at 1 µM: Homo sapiens, Fibroblast, read-out: % storage at 1 μM
Method: Filipin Staining Assay to Detect Free Cholesterol Accumulation in NPC Cells. Compounds were evaluated for their effect on the NPC1 cellular phenotype by staining treated NPC1 patient cell fibroblasts with filipin, which recognizes free unesterified cholesterol. Compounds that upregulate the NPC1 promoter were expected to reduce the filipin staining in treated NPC1 fibroblasts compared to untreated NPC1 fibroblasts, indicating clearance of unesterified cholesterol. Conversely, inhibitors of the NPC1 promoter were expected to increase filipin staining in wild-type fibroblasts, thus indicating the emergence of an NPC-like phenotype. Briefly, cells were grown in lipoprotein-deficient medium for 3-4 days, and then the medium was replaced and supplemented with test compound plus 50 μg/mL low-density lipoprotein (LDL). After 24-48 hours, cells were stained with filipin and scored under the 40× magnification filter using the integrated morphometry function in the Metavue program (Molecular Devices). Test compounds that decreased the intensity of filipin fluorescence to less than 50% of untreated cells are considered of particular interest.

[4] = system: NPC1 promoter; assay: Confirmation Assay of NPC1 Promoter Activators: Renilla Luciferase (Huh7); details: Homo sapiens, Huh-7, 24 hours; for Emax: read-out: NPC1-renilla Eff.
Method: Confirmation Assay of NPC1 Promoter Activators: Renilla Luciferase. The confirmation assay was carried out using an assay in which the NPC1 promoter drives the expression of a different luciferase protein from the one used in the primary screen. The NPC1 promoter was cloned in front of the renilla luciferase reporter gene. NPC1 promoter activation results in renilla luciferase expression. This vector was used to generate Huh7 cell lines stably expressing the NPC1-renilla luciferase vector. These cells were propagated and maintained in medium containing RPMI-1640 supplemented with 10% FBS, 2 mM L-glutamine, and 50 μg/mL penicillin/streptomycin. Cells were plated for assays in OPTI-MEM I reduced-serum medium supplemented with 10% FBS at 1,500 cells/well in 5 μL in 1,536-well white opaque plates and then 23 nL/well of compound in DMSO solution were added through pin transfer. The assay plates were incubated at 37° C. for 24 hours. The Amplite luciferase reporter gene assay kit was purchased from ABD Bioquest and prepared/stored according to manufacturer's recommendations. Luminescence signal was measured in a ViewLux plate reader (Perkin Elmer) after a 10 minute incubation at room temperature.

| SMILES | EC50 [1] | Rab9 Eff. [1] | EC50 [2] | NPC1 Eff. [2] | also measured |
| --- | --- | --- | --- | --- | --- |
| CCN(CC)S(=O)(=O)c1cccc(NC(=O)c2[nH]c(C)c(C(C)=O)c2C)c1 [Example 2] | 8.7 µM | 181% | 7.7 µM | 155% |  |
| CC(=O)c1c(C)[nH]c(C(=O)Nc2cccc(S(=O)(=O)N3CCCC3)c2)c1C [Example 3] | 7.7 µM | 149% | 6.1 µM | 112% |  |
| CC(=O)c1c(C)[nH]c(C(=O)Nc2cccc(S(=O)(=O)N3CCCCC3)c2)c1C [Example 4] | 1.7 µM | 134% | 2.7 µM | 163% |  |
| CC(=O)c1c(C)[nH]c(C(=O)Nc2cccc(S(=O)(=O)N3CCCCCC3)c2)c1C [Example 5] | 2 µM | 153% | 2.7 to 2.9 µM | 196-205% |  |
| CC(=O)c1c(C)[nH]c(C(=O)Nc2cccc(S(=O)(=O)N3CCN(C)CC3)c2)c1C [Example 6] | 10.9 µM | 82% |  |  | NPC1 EC50 [2]: Inactive |
| CC(=O)c1c(C)[nH]c(C(=O)Nc2cccc(S(=O)(=O)N3CCOCC3)c2)c1C [Example 7] | 12.2 µM | 122% | 8.3 µM | 84% |  |
| Cc1cc(C)c(C(=O)Nc2cccc(S(=O)(=O)N(C)C)c2)[nH]1 [Example 8] | 38.7 µM | 82% | 17.2 µM | 48% |  |
| CCc1c(C)[nH]c(C(=O)Nc2cccc(S(=O)(=O)N(C)C)c2)c1C [Example 9] |  |  | 8.6 µM | 47% | Rab9 EC50 [1]: Inactive |
| CC(=O)c1c(C)c(C(=O)Nc2cccc(S(=O)(=O)N(C)C)c2)n(C)c1C [Example 10] |  |  | 21.6 µM | 83% | Rab9 EC50 [1]: Inactive |
| Cc1ccc(C(=O)Nc2cccc(S(=O)(=O)N(C)C)c2)cc1 [Example 13] | 6.9 µM | 54% |  |  | NPC1 EC50 [2]: Inactive |
| Cc1ccccc1C(=O)Nc1cccc(S(=O)(=O)N(C)C)c1 [Example 14] | 17.3 µM | 114% | 4.8 µM | 51% |  |
| Cc1cccc(C(=O)Nc2cccc(S(=O)(=O)N(C)C)c2)c1 [Example 15] | 19.4 µM | 75% | 6.1 µM | 81% |  |
| CN(C)S(=O)(=O)c1cccc(NC(=O)c2ccccc2C(F)(F)F)c1 [Example 16] | 1.4 µM | 155% | 1.2 µM | 125% |  |
| Cc1cccc(C)c1C(=O)Nc1cccc(S(=O)(=O)N(C)C)c1 [Example 17] | 5.5 µM | 131% | 5.4 µM | 127% |  |
| Cc1ccc(C(=O)Nc2cccc(S(=O)(=O)N(C)C)c2)c(C)c1 [Example 18] | 12.2 µM | 97% | 5.4 µM | 79% |  |
| CC(=O)c1cccc(C(=O)Nc2cccc(S(=O)(=O)N(C)C)c2)c1 [Example 19] | 19.4 µM | 94% | 8.6 µM | 40% |  |
| CC(=O)c1ccc(C(=O)Nc2cccc(S(=O)(=O)N(C)C)c2)cc1 [Example 20] | 10.9 µM | 110% |  |  | NPC1 EC50 [2]: Inactive |
| CC(=O)c1c(C)[nH]c(C(=O)Nc2cccc(S(=O)(=O)Nc3ccc(Br)c(F)c3)c2)c1C [Example 23] |  |  | 15.4 µM | 71^a % |  |
| CC(=O)c1c(C)[nH]c(C(=O)Nc2cccc(S(=O)(=O)Nc3cccc(C#N)c3)c2)c1C [Example 31] |  |  |  |  | % storage at 1 μM [3]: 56%; NPC1 EC50 [2]: Inactive |
| CC(=O)c1c(C)[nH]c(C(=O)Nc2cccc(S(=O)(=O)Nc3ccc(Br)cc3)c2)c1C [Example 32] |  |  | 4.3 µM | 80% |  |

| SMILES | EC50 [1] | Rab9 Eff. [1] | EC50 [2] | NPC1 Eff. [2] | also measured |
| --- | --- | --- | --- | --- | --- |
| CCc1ccc(NC(=O)c2[nH]c(C)c(C(C)=O)c2C)cc1S(=O)(=O)Nc1cccc(C#N)c1 [Example 33] |  |  | 2.7 µM | 140% | % storage at 0.1 μM [3]: 43%; % storage at 1 μM [3]: 35% |
| CC(=O)c1c(C)[nH]c(C(=O)Nc2ccc(C)c(S(=O)(=O)Nc3ccc(Br)cc3)c2)c1C [Example 34] |  |  | 1.7 µM | 248% |  |
| CCc1ccc(NC(=O)c2[nH]c(C)c(C(C)=O)c2C)cc1S(=O)(=O)Nc1ccc(Br)cc1 [Example 35] |  |  | 0.7 µM | 208% |  |
| CCc1ccc(NC(=O)c2[nH]c(C)c(C(C)=O)c2C)cc1S(=O)(=O)Nc1ccc(C#N)cc1 [Example 38] |  |  | 3.4 µM | 259% | % storage at 1 μM [3]: 62% |
| COc1ccc(NC(=O)c2[nH]c(C)c(C(C)=O)c2C)cc1S(=O)(=O)Nc1cccc(C#N)c1 [Example 40] |  |  | 0.9 µM | 129% | % storage at 1 μM [3]: 29% |
| COc1ccc(NC(=O)c2[nH]c(C)c(C(C)=O)c2C)cc1S(=O)(=O)Nc1ccc(C#N)cc1 [Example 41] |  |  | 8.7 µM | 100% | % storage at 1 μM [3]: 58% |
| COc1ccc(NC(=O)c2[nH]c(C)cc2C)cc1S(=O)(=O)Nc1ccc(Br)cc1 [Example 42] |  |  |  |  | EC50 [4]: 2.7 µM; Emax [4]: 119%; activity at 1 µM [3]: 47%; % storage at 0.1 μM [3]: 49% |
| COc1ccc(NC(=O)c2ccc[nH]2)cc1S(=O)(=O)Nc1ccc(Br)cc1 [Example 43] |  |  |  |  | EC50 [4]: 4.3 µM; Emax [4]: 88% |
| COc1ccc(NC(=O)c2c(C)c(C(C)=O)c(C)n2C)cc1S(=O)(=O)Nc1ccc(Br)cc1 [Example 44] |  |  |  |  | EC50 [4]: 0.5 µM; Emax [4]: 245% |
| COc1ccc(NC(=O)c2ccccc2)cc1S(=O)(=O)Nc1ccc(Br)cc1 [Example 45] |  |  |  |  | EC50 [4]: 1.1 µM; Emax [4]: 223%; activity at 1 µM [3]: 60% |
| COc1ccc(NC(=O)c2c(C)cccc2C)cc1S(=O)(=O)Nc1ccc(Br)cc1 [Example 46] |  |  |  |  | EC50 [4]: 1.1 µM; Emax [4]: 192%; activity at 1 µM [3]: 46%; % storage at 0.1 μM [3]: 26% |
| COc1ccc(NC(=O)c2cccnc2C)cc1S(=O)(=O)Nc1ccc(Br)cc1 [Example 49] |  |  |  |  | EC50 [4]: 5.5 µM; Emax [4]: 395%; activity at 1 µM [3]: 30% |
| COc1ccc(NC(=O)c2cccnc2)cc1S(=O)(=O)Nc1ccc(Br)cc1 [Example 51] |  |  |  |  | EC50 [4]: 2.7 µM; Emax [4]: 257%; activity at 1 µM [3]: 29% |
| COc1ccc(NC(=O)c2[nH]c(C)c(C(C)=O)c2C)cc1S(=O)(=O)C1CCCCCC1 [Example 53] |  |  |  |  | activity at 1 µM [3]: 24%; % storage at 0.1 μM [3]: 55% |
| CC(=O)c1c(C)[nH]c(C(=O)Nc2ccc(OCCCN(C)C)c(S(=O)(=O)Nc3ccc(Br)cc3)c2)c1C [Example 54] |  |  |  |  | % storage at 1 μM [3]: 60% |
| COc1ccc(NC(=O)c2ncc[nH]2)cc1S(=O)(=O)Nc1ccc(Br)cc1 [Example 55] |  |  |  |  | % storage at 1 μM [3]: 30% |
| COc1ccc(NC(=O)c2c[nH]cn2)cc1S(=O)(=O)Nc1ccc(Br)cc1 [Example 56] |  |  |  |  | % storage at 0.1 μM [3]: 50%; % storage at 1 μM [3]: 48% |
| COc1ccc(NC(=O)c2c[nH]c(-c3ccccc3)n2)cc1S(=O)(=O)Nc1ccc(Br)cc1 [Example 57] |  |  |  |  | % storage at 0.1 μM [3]: 70%; % storage at 1 μM [3]: 41% |
| COc1ccc(NC(=O)c2[nH]c(C)c(C(C)=O)c2C)cc1S(=O)(=O)Nc1ccc(Cl)cc1 [Example 58] |  |  |  |  | % storage at 1 μM [3]: 58% |
| COc1ccc(NC(=O)c2[nH]c(C)c(C(C)=O)c2C)cc1S(=O)(=O)C1CCc2ccccc2CC1 [Example 59] |  |  |  |  | activity at 1 µM [3]: 40% |

From patent US10239830B2, “Benzenesulfonamide upregulators of NPC1 for Neimann-Pick disease and other lysosomal storage disorders” (ICAHN SCHOOL OF MEDICINE AT MOUNT SINAI, priority 2015, dated 2019)
